The target in one experiment is PI3Kδ (p110δ/p85α) (Homo sapiens (Human), UniProt O00329). The experiment can be described thus: PI3Kδ Scintillation Proximity Assay. Type of experiment: biochemical. The note with it: 20 μM PIP2, 20 μM ATP, 4 nM PI3Kδ, 210 min; read-out: PI3Kδ SPA IC50. An excerpt:
[γ-^33P]ATP (10 mCi/mL) was purchased from Perkin-Elmer (Waltham, Mass.). Lipid kinase substrate, D-myo-Phosphatidylinositol 4,5-bisphosphate (PtdIns(4,5)P2)D(+)-sn-1,2-di-O-octanoylglyceryl, 3-O-phospho linked (PIP2), CAS 204858-53-7, was purchased from Echelon Biosciences (Salt Lake City, Utah). PI3Kδ (p110δ/p85α) was purchased from Millipore (Bedford, Mass.). ATP, MgCl2, DTT, EDTA, MOPS and CHAPS were purchased from Sigma-Aldrich (St. Louis, Mo.). Wheat Germ Agglutinin (WGA) YSi SPA Scintillation Beads was purchased from GE healthcare life sciences (Piscataway, N.J.).
The kinase reaction was conducted in polystyrene 384-well matrix white plate from Thermo Fisher Scientific in a final volume of 25 μL. Inhibitors were first diluted serially in DMSO and added to the plate wells before the addition of other reaction components. The final concentration of DMSO in the assay was 0.5%. The PI3K assays were carried out at room temperature in 20 mM MOPS, pH 6.7, 10 mM MgCl2, 5 mM DTT and CHAPS 0.03%. Reactions were initiated by the addition of ATP, the final reaction mixture consisted of 20 μM PIP2, 20 μM ATP, 0.2 μCi [γ-^33P]ATP, 4 nM PI3Kδ. Reactions were incubated for 210 min and terminated by the addition of 40 μL SPA beads suspended in quench buffer: 150 mM potassium phosphate pH 8.0, 20% glycerol. 25 mM EDTA, 400 μM ATP. The final concentration of SPA beads was 1.0 mg/mL. After the plate sealing, plates were shaken overnight at room temperature and centrifuged at 1800 rpm for 10 minutes, the radioactivity of the product was determined by scintillation counting on Topcount (Perkin-Elmer). IC50 determination was performed by fitting the curve of percent control activity versus the log of the inhibitor concentration using the GraphPad Prism 3.0 software.
(Scintillation proximity formats need no separation of bound from free tracer.)

In experiment [1] the test system is Pfeiffer cell line (diffuse large B cell lymphoma). Nature of the experiment: Pfeiffer Cell Proliferation Assay. It counts as cell-based. The note with it: Homo sapiens, [3H]-thymidine incorporation after 3-4 days. As to the method: Pfeiffer cell line (diffuse large B cell lymphoma) was purchased from ATCC (Manassas, Va.) and maintained in the culture medium recommended (RPMI and 10% FBS). To measure the anti-proliferation activity of the compounds, the Pfeiffer cells were plated with the culture medium (2×10^3 cells/well/[…]) into 96-well ultra-low binding plates (Corning, Corning, N.Y.), in the presence or absence of a concentration range of test compounds. After 3-4 days, [^3H]-thymidine (1 μCi/well) (PerkinElmer, Boston, Mass.) in PBS was then added to the cell culture for an additional 12 hours before the incorporated radioactivity was separated by filtration with water through GF/B filters (Packard Bioscience, Meridenj, Conn.) and measured by liquid scintillation counting with a TopCount (Packard Bioscience). Pfeiffer cell proliferation data for certain compounds described herein is provided below in Table 8.
(Dividing cells build labelled thymidine or BrdU into new DNA.)

The values that follow come from patent US9126948B2, “Pyrimidine-4,6-diamine derivatives as PI3K inhibitors” (Incyte Holdings Corporation, priority 2011, dated 2015).

Counter-ions that a name gives are not always drawn.

Sequence of PI3Kδ (p110δ/p85α) (O00329 whole entry, species assumed): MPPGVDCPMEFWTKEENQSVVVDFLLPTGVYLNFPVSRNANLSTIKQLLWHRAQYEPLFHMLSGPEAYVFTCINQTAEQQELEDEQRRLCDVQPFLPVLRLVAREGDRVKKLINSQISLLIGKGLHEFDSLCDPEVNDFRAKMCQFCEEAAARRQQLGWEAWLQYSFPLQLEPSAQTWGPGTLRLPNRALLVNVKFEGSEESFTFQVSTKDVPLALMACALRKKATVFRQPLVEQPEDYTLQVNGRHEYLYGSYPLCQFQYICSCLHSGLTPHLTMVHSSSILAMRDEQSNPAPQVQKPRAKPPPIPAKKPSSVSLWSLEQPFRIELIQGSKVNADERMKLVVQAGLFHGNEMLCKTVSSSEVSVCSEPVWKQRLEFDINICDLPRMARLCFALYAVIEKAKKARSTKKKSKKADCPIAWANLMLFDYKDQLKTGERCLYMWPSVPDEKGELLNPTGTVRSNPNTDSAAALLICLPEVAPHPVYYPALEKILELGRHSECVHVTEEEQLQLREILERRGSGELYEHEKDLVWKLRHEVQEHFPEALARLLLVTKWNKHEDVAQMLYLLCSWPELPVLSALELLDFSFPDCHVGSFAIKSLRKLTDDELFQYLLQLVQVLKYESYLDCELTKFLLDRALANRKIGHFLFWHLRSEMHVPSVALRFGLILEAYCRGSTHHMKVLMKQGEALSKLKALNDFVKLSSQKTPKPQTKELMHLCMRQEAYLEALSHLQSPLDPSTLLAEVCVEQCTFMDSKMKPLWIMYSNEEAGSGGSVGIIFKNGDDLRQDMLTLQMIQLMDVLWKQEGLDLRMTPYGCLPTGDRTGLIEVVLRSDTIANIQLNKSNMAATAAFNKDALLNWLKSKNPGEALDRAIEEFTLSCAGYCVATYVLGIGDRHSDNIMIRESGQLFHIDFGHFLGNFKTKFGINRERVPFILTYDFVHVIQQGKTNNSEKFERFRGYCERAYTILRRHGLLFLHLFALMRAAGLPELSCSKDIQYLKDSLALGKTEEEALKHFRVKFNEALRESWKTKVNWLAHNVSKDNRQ
Sequence of PI3Kδ (p110δ/p85α) (P27986 whole entry partner, species assumed): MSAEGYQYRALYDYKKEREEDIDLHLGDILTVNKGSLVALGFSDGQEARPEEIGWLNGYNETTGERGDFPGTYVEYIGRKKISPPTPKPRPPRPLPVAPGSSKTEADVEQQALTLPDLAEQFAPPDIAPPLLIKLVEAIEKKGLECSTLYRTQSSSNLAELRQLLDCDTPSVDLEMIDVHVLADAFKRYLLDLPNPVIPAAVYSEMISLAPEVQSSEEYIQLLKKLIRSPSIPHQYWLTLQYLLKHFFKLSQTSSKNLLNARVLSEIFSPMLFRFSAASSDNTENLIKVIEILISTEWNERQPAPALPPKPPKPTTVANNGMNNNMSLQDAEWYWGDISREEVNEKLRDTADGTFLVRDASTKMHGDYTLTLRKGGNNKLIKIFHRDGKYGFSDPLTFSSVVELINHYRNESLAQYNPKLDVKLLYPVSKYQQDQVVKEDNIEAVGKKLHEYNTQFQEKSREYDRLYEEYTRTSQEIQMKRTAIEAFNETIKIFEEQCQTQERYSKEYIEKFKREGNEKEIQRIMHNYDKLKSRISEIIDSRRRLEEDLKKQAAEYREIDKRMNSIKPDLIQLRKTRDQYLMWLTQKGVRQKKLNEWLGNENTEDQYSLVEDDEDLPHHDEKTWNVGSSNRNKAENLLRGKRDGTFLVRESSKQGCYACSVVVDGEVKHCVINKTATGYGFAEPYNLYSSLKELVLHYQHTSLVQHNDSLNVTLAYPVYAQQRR

For `COc1c(C(C)Nc2ncnc(N)c2C#N)cc(Cl)c(C)c1-c1cnc(N)nc1` (stereo not shown) [Example 3, 4-amino-6-({1-[3-(2-aminopyrimidin-5-yl)-5-chloro-2-methoxy-4-methyl-phenyl]ethyl}-amino)pyrimidine-5-carbonitrile], the 50% inhibitory concentration (IC50) (on PI3Kδ (p110δ/p85α); in experiment [1]) was below 20 nM throughout. `COc1c(C(C)Nc2ncnc(N)c2C#N)cc(Cl)c(F)c1-c1cncc(S(C)(=O)=O)c1` (stereo not shown) [Example 8, 4-amino-6-[(1-{5-chloro-4-fluoro-2-methoxy-3-[5-(methyl-sulfonyl)pyridin-3-yl]phenyl}ethyl)amino]-pyrimidine-5-carbonitrile bis(trifluoroacetate)]: the IC50 (on PI3Kδ (p110δ/p85α); in experiment [1]) was below 20 nM each time. As to `COc1c(C(C)Nc2ncnc(N)c2C#N)cc(Cl)c(C)c1-c1cncc(C(=O)N2CCOCC2)c1` (stereo not shown) [Example 5, 4-amino-6-[(1-{5-chloro-2-methoxy-4-methyl-3-[5-(morpholin-4-ylcarbonyl)pyridin-3-yl]phenyl}ethyl)-amino]pyrimidine-5-carbonitrile], the IC50 (on PI3Kδ (p110δ/p85α); in experiment [1]) was below 20 nM throughout. `COc1c(C(C)Nc2ncnc(N)c2C#N)cc(Cl)c(Cl)c1-c1cncc(F)c1` (stereo not shown) [Example 12, 4-Amino-6-({1-[4,5-dichloro-3-(5-fluoropyridin-3-yl)-2-methoxyphenyl]ethyl}amino) pyrimidine-5-carbonitrile]: the IC50 (on PI3Kδ (p110δ/p85α); in experiment [1]) was below 20 nM in each case. `COc1c(C(C)Nc2ncnc(N)c2C#N)cc(Cl)c(C)c1-c1cncc(C#N)c1` (stereo not shown) [Example 2, 4-amino-6-({1-[5-chloro-3-(5-cyano-pyridin-3-yl)-2-methoxy-4-methylphenyl]ethyl}amino)-pyrimidine-5-carbonitrile]: the IC50 (at PI3Kδ (p110δ/p85α); in experiment [1]) was below 20 nM in each case. For the molecule `COc1c(C(C)Nc2ncnc(N)c2C#N)cc(Cl)c(Cl)c1-c1ccc(S(C)(=O)=O)cc1` (stereo not shown) [Example 13, 4-Amino-6-({1-[5,6-dichloro-2-methoxy-4′-(methylsulfonyl)biphenyl-3-yl]ethyl}amino) pyrimidine-5-carbonitrile], at PI3Kδ (p110δ/p85α), the 50% inhibitory concentration (IC50) – broadly, the midpoint of a concentration-inhibition curve – is below 20 nM. Consider `COc1c(C(C)Nc2ncnc(N)c2C#N)cc(Cl)c(Cl)c1-c1cnc(N)nc1` (stereo not shown) [Example 14, 4-Amino-6-({1-[3-(2-aminopyrimidin-5-yl)-4,5-dichloro-2-methoxy-phenyl]ethyl}amino)pyrimidine-5-carbonitrile], for which the IC50 (on PI3Kδ (p110δ/p85α); in experiment [1]) was below 20 nM each time. In the case of `COc1c(C(C)Nc2ncnc(N)c2C#N)cc(Cl)c(C)c1-c1ccc(S(C)(=O)=O)cc1` (stereo not shown) [Example 4, 4-amino-6-({1-[5-chloro-2-methoxy-6-methyl-4′-(methyl-sulfonyl)biphenyl-3-yl]ethyl}amino) pyrimidine-5-carbonitrile], the IC50 (on PI3Kδ (p110δ/p85α); in experiment [1]) was below 20 nM each time. For `COc1c(C(C)Nc2ncnc(N)c2C#N)cc(Cl)c(F)c1-c1cncc(C#N)c1` (stereo not shown) [Example 6, 4-Amino-6-({1-[5-chloro-3-(5-cyanopyridin-3-yl)-4-fluoro-2-methoxyphenyl]ethyl}-amino)pyrimidine-5-carbonitrile], the 50% inhibitory concentration (IC50) (at PI3Kδ (p110δ/p85α); in experiment [1]) was below 20 nM throughout.

Turning to `COc1c(C(C)Nc2ncnc(N)c2C#N)cc(Cl)c(F)c1-c1ccc(S(C)(=O)=O)cc1` (stereo not shown) [Example 9, 4-amino-6-({1-[5-chloro-6-fluoro-2-methoxy-4′-(methylsulfonyl)biphenyl-3-yl]ethyl}amino) pyrimidine-5-carbonitrile], the IC50 at PI3Kδ (p110δ/p85α) is below 20 nM. Turning to `COc1c(C(C)Nc2ncnc(N)c2C#N)cc(Cl)c(F)c1-c1cncc(F)c1` (stereo not shown) [Example 7, 4-amino-6-({1-[5-chloro-4-fluoro-3-(5-fluoropyridin-3-yl)-2-methoxyphenyl]ethyl}-amino) pyrimidine-5-carbonitrile], the IC50 (on PI3Kδ (p110δ/p85α); in experiment [1]) was below 20 nM in each case. `COc1c(C(C)Nc2ncnc(N)c2C#N)cc(Cl)c(C)c1-c1cncc(S(C)(=O)=O)c1` (stereo not shown) [Example 1, 4-Amino-6-[(1-{5-chloro-2-methoxy-4-methyl-3-[5-(methylsulfonyl)pyridin-3-yl]phenyl}ethyl)amino]pyrimidine-5-carbonitrile trifluoroacetic acid salt] displayed an IC50 in experiment [1] below 20 nM. Take `COc1c(C(C)Nc2ncnc(N)c2C#N)cc(Cl)c(Cl)c1-c1cncc(S(C)(=O)=O)c1` (stereo not shown) [Example 11, 4-Amino-6-[(1-{4,5-dichloro-2-methoxy-3-[5-(methylsulfonyl)pyridin-3-yl]phenyl}ethyl)amino]pyrimidine-5-carbonitrile]: the IC50 (at PI3Kδ (p110δ/p85α); in experiment [1]) was below 20 nM in each case. For `COc1c(C(C)Nc2ncnc(N)c2C#N)cc(Cl)c(F)c1-c1cnc(N)nc1` (stereo not shown) [Example 10, 4-amino-6-({1-[3-(2-aminopyrimidin-5-yl)-5-chloro-4-fluoro-2-methoxyphenyl]-ethyl}amino)pyrimidine-5-carbonitrile], the IC50 (on PI3Kδ (p110δ/p85α); in experiment [1]) was below 20 nM each time.
